Molecular target: T1, G3BP1^335–466 (RRM and IDR3 domains) (Homo sapiens, UniProt Q13283)
T1 construct: RRM + IDR3, residues 335-466, N-terminal GST removed by thrombin, E. coli BL21(DE3)
Assay: SPR (Biacore T200, protein on CM5 chip)
Format: binding

T1 sequence (Q13283 335-466): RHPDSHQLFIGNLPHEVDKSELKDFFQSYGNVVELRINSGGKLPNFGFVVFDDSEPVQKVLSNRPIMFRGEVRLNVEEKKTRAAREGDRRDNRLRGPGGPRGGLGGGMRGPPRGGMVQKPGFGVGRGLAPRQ

In the case of COc1ccc(-c2oc3c(CC=C(C)C)c(O[C@@H]4O[C@H](CO)[C@@H](O)[C@H](O)[C@H]4O)cc(O)c3c(=O)c2O[C@@H]2O[C@@H](C)[C@H](O)[C@@H](O)[C@H]2O)cc1 [icariin], the Kd is reported as over 100 µM.

Source: PMC12866838, “Targeting G3BP1 Condensate Topology Promotes Stress Granule Assembly via m^6A‐IGF2BP1 for Ischemic Stroke Rescue” (Advanced Science, 2025)
